# Laboratory results as given in EP1953147A1, “HETEROCYCLIC COMPOUND AND MEDICINAL APPLICATION THEREOF” (priority 2005, dated 2007).
# pIC50: −log10 of the molar value.
# Test system: ΔG/SEAP/HCV E1E2
# Experiment: Effect of test substance on cell infection with HCV pseudotype virus (SEAP reporter assay in HepG2 cells)
# Type: cell-based
# Settings: Hepatitis C virus
row,SMILES,pIC50
1,"CCOC(=O)N1CCc2c(-c3cc(OC)cc(OC)c3)nn(-c3cc(N4CC[C@H](O)C4)ccc3C(F)(F)F)c(=O)c21 [Example 60, 4-(3,5-dimethoxy-phenyl)-6-[5-((S)-3-hydroxy-pyrrolidin-1-yl)-2-trifluoromethyl-phenyl]-7-oxo-2,3,6,7-tetrahydro-pyrrolo[2,3-d]pyridazine-1-carboxylic acid ethyl ester]",> 7.00
2,"CCOC(=O)N1CCc2c(-c3cc(O)cc(O)c3)nn(-c3cc(N4CC[C@H](O)C4)ccc3C(F)(F)F)c(=O)c21 [Example 61, 4-(3,5-dihydroxy-phenyl)-6-[5-((S)-3-hydroxy-pyrrolidin-1-yl)-2-trifluoromethyl-phenyl]-7-oxo-2,3,6,7-tetrahydro-pyrrolo[2,3-d]pyridazine-1-carboxylic acid ethyl ester]",5.00 to 7.00
3,"CCOc1ccc(C(F)(F)F)c(-n2nc(-c3cc(OC)cc(OC)c3)c3c(c2=O)CCC3)c1 [Example 62, 4-(3,5-dimethoxy-phenyl)-2-(5-ethoxy-2-trifluoromethyl-phenyl)-2,5,6,7-tetrahydro-cyclopenta[d]pyridazin-1-one]",> 7.00
4,"COc1cc(OC)cc(-c2nn(-c3cc(OCCO)ccc3C(F)(F)F)c(=O)c3c2CCC3)c1 [Example 63, 4-(3,5-dimethoxy-phenyl)-2-[5-(2-hydroxy-ethoxy)-2-trifluoromethyl-phenyl]-2,5,6,7-tetrahydro-cyclopenta[d]pyridazin-1-one]",> 7.00
5,"Cc1cccc(-c2nn(-c3cc(N4CC[C@H](O)C4)ccc3C(F)(F)F)c(=O)c3c2CCC3)c1 [Example 64, 2-[5-((S)-3-hydroxy-pyrrolidin-1-yl)-2-trifluoromethyl-phenyl]-4-m-tolyl-2,5,6,7-tetrahydro-cyclopenta[d]pyridazin-1-one]",> 7.00
6,"O=c1c2c(c(-c3cccc(F)c3)nn1-c1cc(N3CC[C@H](O)C3)ccc1C(F)(F)F)CCC2 [Example 65, 4-(3-fluoro-phenyl)-2-[5-((S)-3-hydroxy-pyrrolidin-1-yl)-2-trifluoromethyl-phenyl]-2,5,6,7-tetrahydro-cyclopenta[d]pyridazin-1-one]",> 7.00
7,"O=c1c2c(c(-c3ccccc3)nn1-c1cc(N3CC[C@H](O)C3)ccc1C(F)(F)F)CCC2 [Example 66, 2-[5-((S)-3-hydroxy-pyrrolidin-1-yl)-2-trifluoromethyl-phenyl]-4-phenyl-2,5,6,7-tetrahydro-cyclopenta[d]pyridazin-1-one]",> 7.00
8,"CCNc1ccc(C(F)(F)F)c(-n2nc(-c3cc(OC)cc(OC)c3)c3c(c2=O)CCC3)c1 [Example 67, 4-(3,5-dimethoxy-phenyl)-2-(5-ethylamino-2-trifluoromethyl-phenyl)-2,5,6,7-tetrahydro-cyclopenta[d]pyridazin-1-one]",> 7.00
9,"CCN(C)c1ccc(C(F)(F)F)c(-n2nc(-c3cc(OC)cc(OC)c3)c3c(c2=O)CCC3)c1 [Example 68, 4-(3,5-dimethoxy-phenyl)-2-[5-(ethyl-methylamino)-2-trifluoromethyl-phenyl]-2,5,6,7-tetrahydro-cyclopenta[d]pyridazin-1-one]",> 7.00
10,"COc1cc(OC)cc(-c2nn(-c3cc(OC)ccc3C(F)(F)F)c(=O)c3c2CCC3)c1 [Example 69, 4-(3,5-dimethoxy-phenyl)-2-(5-methoxy-2-trifluoromethyl-phenyl)-2,5,6,7-tetrahydro-cyclopenta[d]pyridazin-1-one]",> 7.00
11,"COc1cc(OC)cc(-c2nn(-c3cc(N4CCOCC4)ccc3C(F)(F)F)c(=O)c3c2CCC3)c1 [Example 70, 4-(3,5-dimethoxy-phenyl)-2-(5-morpholin-4-yl-2-trifluoromethyl-phenyl)-2,5,6,7-tetrahydro-cyclopenta[d]pyridazin-1-one]",> 7.00
12,"COc1cc(OC)cc(-c2nn(-c3cc(N4CCC4)ccc3C(F)(F)F)c(=O)c3c2CCC3)c1 [Example 71, 2-(5-azetidin-1-yl-2-trifluoromethyl-phenyl)-4-(3,5-dimethoxy-phenyl)-2,5,6,7-tetrahydro-cyclopenta[d]pyridazin-1-one]",> 7.00
13,"O=c1c2c(c(-c3cccc(Cl)c3)nn1-c1cc(N3CC[C@H](O)C3)ccc1C(F)(F)F)CCC2 [Example 72, 4-(3-chloro-phenyl)-2-[5-((S)-3-hydroxy-pyrrolidin-1-yl)-2-trifluoromethyl-phenyl]-2,5,6,7-tetrahydro-cyclopenta[d]pyridazin-1-one]",> 7.00
14,"O=c1c2c(c(-c3cccc(Br)c3)nn1-c1cc(N3CC[C@H](O)C3)ccc1C(F)(F)F)CCC2 [Example 73, 4-(3-bromo-phenyl)-2-[5-((S)-3-hydroxy-pyrrolidin-1-yl)-2-trifluoromethyl-phenyl]-2,5,6,7-tetrahydro-cyclopenta[d]pyridazin-1-one]",> 7.00
15,"O=c1c2c(c(-c3cccc(C(F)(F)F)c3)nn1-c1cc(N3CC[C@H](O)C3)ccc1C(F)(F)F)CCC2 [Example 74, 2-[5-((S)-3-hydroxy-pyrrolidin-1-yl)-2-trifluoromethyl-phenyl]-4-(3-trifluoromethyl-phenyl)-2,5,6,7-tetrahydro-cyclopenta[d]pyridazin-1-one]",> 7.00
16,"O=c1c2c(c(-c3ccc(C(F)(F)F)cc3)nn1-c1cc(N3CC[C@H](O)C3)ccc1C(F)(F)F)CCC2 [Example 75, 2-[5-((S)-3-hydroxy-pyrrolidin-1-yl)-2-trifluoromethyl-phenyl]-4-(4-trifluoromethyl-phenyl)-2,5,6,7-tetrahydro-cyclopenta[d]pyridazin-1-one]",5.00 to 7.00

row,SMILES,pIC50
1,"O=c1c2c(c(-c3ccc(F)cc3)nn1-c1cc(N3CC[C@H](O)C3)ccc1C(F)(F)F)CCC2 [Example 76, 4-(4-fluoro-phenyl)-2-[5-((S)-3-hydroxy-pyrrolidin-1-yl)-2-trifluoromethyl-phenyl]-2,5,6,7-tetrahydro-cyclopenta[d]pyridazin-1-one]",> 7.00
2,"COc1ccc(-c2nn(-c3cc(N4CC[C@H](O)C4)ccc3C(F)(F)F)c(=O)c3c2CCC3)cc1 [Example 77, 2-[5-((S)-3-hydroxy-pyrrolidin-1-yl)-2-trifluoromethyl-phenyl]-4-(4-methoxy-phenyl)-2,5,6,7-tetrahydro-cyclopenta[d]pyridazin-1-one]",> 7.00
3,"O=c1c2c(c(-c3ccc(Cl)cc3)nn1-c1cc(N3CC[C@H](O)C3)ccc1C(F)(F)F)CCC2 [Example 78, 4-(4-chloro-phenyl)-2-[5-((S)-3-hydroxy-pyrrolidin-1-yl)-2-trifluoromethyl-phenyl]-2,5,6,7-tetrahydro-cyclopenta[d]pyridazin-1-one]",> 7.00
4,"O=C(O)c1cccc(-c2nn(-c3cc(N4CC[C@H](O)C4)ccc3C(F)(F)F)c(=O)c3c2CCC3)c1 [Example 79, 3-{3-[5-((S)-3-hydroxy-pyrrolidin-1-yl)-2-trifluoromethyl-phenyl]-4-oxo-4,5,6,7-tetrahydro-3H-cyclopenta[d]pyridazin-1-yl}-benzoic acid]",5.00 to 7.00
5,"O=C(O)c1ccc(-c2nn(-c3cc(N4CC[C@H](O)C4)ccc3C(F)(F)F)c(=O)c3c2CCC3)cc1 [Example 80, 4-{3-[5-((S)-3-hydroxy-pyrrolidin-1-yl)-2-trifluoromethyl-phenyl]-4-oxo-4,5,6,7-tetrahydro-3H-cyclopenta[d]pyridazin-1-yl}-benzoic acid]",5.00 to 7.00
6,"COc1cc(OC)cc(-c2nn(-c3cc(N(C)C)ccc3C(F)(F)F)c(=O)c3c2CCC3)c1 [Example 81, 4-(3,5-dimethoxy-phenyl)-2-(5-dimethylamino-2-trifluoromethyl-phenyl)-2,5,6,7-tetrahydro-cyclopenta[d]pyridazin-1-one]",> 7.00
7,"CNc1ccc(C(F)(F)F)c(-n2nc(-c3cc(OC)cc(OC)c3)c3c(c2=O)CCC3)c1 [Example 82, 4-(3,5-dimethoxy-phenyl)-2-(5-methylamino-2-trifluoromethyl-phenyl)-2,5,6,7-tetrahydro-cyclopenta[d]pyridazin-1-one]",> 7.00
8,"COc1cc(OC)cc(-c2nn(-c3cc(NC(=O)CO)ccc3C(F)(F)F)c(=O)c3c2CCC3)c1 [Example 83, N-{3-[4-(3,5-dimethoxy-phenyl)-1-oxo-1,5,6,7-tetrahydro-cyclopenta[d]pyridazin-2-yl]-4-trifluoromethyl-phenyl}-2-hydroxy-acetamide]",> 7.00
9,"CCCC(=O)Nc1ccc(C(F)(F)F)c(-n2nc(-c3cc(OC)cc(OC)c3)c3c(c2=O)CCC3)c1 [Example 84, N-{3-[4-(3,5-dimethoxy-phenyl)-1-oxo-1,5,6,7-tetrahydro-cyclopenta[d]pyridazin-2-yl]-4-trifluoromethyl-phenyl}-butyramide]",> 7.00
10,"CN(C)c1cccc(-c2nn(-c3cc(N4CC[C@H](O)C4)ccc3C(F)(F)F)c(=O)c3c2CCC3)c1 [Example 85, 4-(3-dimethylamino-phenyl)-2-[5-((S)-3-hydroxy-pyrrolidin-1-yl)-2-trifluoromethyl-phenyl]-2,5,6,7-tetrahydro-cyclopenta[d]pyridazin-1-one]",> 7.00
11,"COc1cc(OC)cc(-c2nn(-c3ccccc3Cl)c(=O)c3c2CCC3)c1 [Example 86, 2-(2-chloro-phenyl)-4-(3,5-dimethoxy-phenyl)-2,5,6,7-tetrahydro-cyclopenta[d]pyridazin-1-one]",5.00 to 7.00
12,"COc1cc(OC)cc(-c2nn(-c3c(Cl)cccc3Cl)c(=O)c3c2CCC3)c1 [Example 87, 2-(2,6-dichloro-phenyl)-4-(3,5-dimethoxy-phenyl)-2,5,6,7-tetrahydro-cyclopenta[d]pyridazin-1-one]",> 7.00
13,"COc1cc(OC)cc(-c2nn(-c3cc(C)ccc3C(F)(F)F)c(=O)c3c2CCC3)c1 [Example 88, 4-(3,5-dimethoxy-phenyl)-2-(5-methyl-2-trifluoromethyl-phenyl)-2,5,6,7-tetrahydro-cyclopenta[d]pyridazin-1-one]",> 7.00
14,"CCc1ccc(C(F)(F)F)c(-n2nc(-c3cc(OC)cc(OC)c3)c3c(c2=O)CCC3)c1 [Example 89, 4-(3,5-dimethoxy-phenyl)-2-(5-ethyl-2-trifluoromethyl-phenyl)-2,5,6,7-tetrahydro-cyclopenta[d]pyridazin-1-one]",> 7.00
15,"O=c1c2c(c(-c3ccc(Br)cc3)nn1-c1cc(N3CC[C@H](O)C3)ccc1C(F)(F)F)CCC2 [Example 90, 4-(4-bromo-phenyl)-2-[5-((S)-3-hydroxy-pyrrolidin-1-yl)-2-trifluoromethyl-phenyl]-2,5,6,7-tetrahydro-cyclopenta[d]pyridazin-1-one]",> 7.00
